The first test concerns the target T1, rat α3β4 receptors (Rattus norvegicus, UniProt P04757+P12392).
T1 construct: expressed in transfected cells; host or cells: HEK cells (KXα3β4R2)
Put plainly: [3H]epibatidine competition binding on membranes of HEK cells transfected with rat α3β4 receptors.
Conditions: not given
With `C1=C(c2cccnc2)CC2CC1CN2Cc1ccccc1` (stereo not shown) [SR 17004], the inhibitory constant (Ki) came to 0.194 µM.

The same test, now with this note: competition with 0.3 nM [3H]epibatidine; KXα3β4R2 HEK cell membranes; 3 h room temperature; read-out: Binding affinities α3β4 (Ki).
With `O=c1cccc2n1C[C@@H]1CNC[C@H]2C1` [Cytisine, reference compound], the inhibitory constant (Ki) amounted to 0.203 µM.

For `CN1C2CCC1CC(N1C(=O)Cc3ccccc31)C2` (stereo not shown) [SR 16583], the Ki turned out to be 2.79 µM.

Turning to `O=C1Cc2ccccc2N1C1CC2CCCC(C1)N2` (stereo not shown) [SR 16832], the inhibition constant (Ki) was determined as 0.421 µM.

As to `C1=C(c2cnc3ccccc3c2)CC2CC1N(Cc1ccccc1)C2` (stereo not shown) [SR 17015], the Ki came out at 2.48 µM.

As for `CN1C2C=C(c3cnc4ccccc4c3)CC1CCC2` (stereo not shown) [SR 17027], the inhibitory constant (Ki) was found to be 2.61 µM.

The test is the same for the next values; noted with them: read-out: Binding affinities α3β4 (Ki).
Consider `CN1C2CCCC1CC(Nc1ccccc1)C2` (stereo not shown) [SR 17011], for which the inhibitory constant (Ki) was 0.826 µM.

Regarding `CCOC(=O)N1C2C=C(c3cccnc3)CC1CCC2` (stereo not shown) [SR 17021], the Ki was greater than 10 µM.

On to `CN1C2C=C(c3cccnc3)CC1CCC2` (stereo not shown) [SR 17026], for which the inhibitory constant (Ki) was 0.24 µM.

Another test has as its target T2, rat α4β2 receptors (Rattus norvegicus, UniProt P09483+P12390).
T2 construct: expressed in transfected cells; host or cells: HEK cells (KXα4β2R2)
Kind of test: [3H]epibatidine competition binding on membranes of HEK cells transfected with rat α4β2 receptors.
Conditions: not given
Compound `CN1C2CCC1CC(N1C(=O)Cc3ccccc31)C2` (stereo not shown) [SR 16583] yielded a Ki greater than 10 µM.

With `CN1C2CCCC1CC(N1C(=O)Cc3ccccc31)C2` (stereo not shown) [SR 16584], the Ki is greater than 10 µM.

Regarding `O=C1Cc2ccccc2N1C1CC2CCCC(C1)N2` (stereo not shown) [SR 16832], the Ki was greater than 10 µM.

Compound `CN1C2C=C(c3cccnc3)CC1CCC2` (stereo not shown) [SR 17026] showed an inhibitory constant (Ki) of 0.01 µM.

The test is the same for the next values; noted with them: competition with 0.3 nM [3H]epibatidine; KXα4β2R2 HEK cell membranes; 3 h room temperature; read-out: Binding affinities α4β2 (Ki).
With `O=c1cccc2n1C[C@@H]1CNC[C@H]2C1` [Cytisine, reference compound], the Ki is 0.00153 µM.

In the case of `C1=C(c2cnc3ccccc3c2)CC2CC1N(Cc1ccccc1)C2` (stereo not shown) [SR 17015], the inhibition constant Ki is 0.029 µM.

Take `CN1C2C=C(c3cnc4ccccc4c3)CC1CCC2` (stereo not shown) [SR 17027]: the Ki turned out to be 0.423 µM.

Still in this test, the particulars now being: read-out: Binding affinities α4β2 (Ki).
As for `C1=C(c2cccnc2)CC2CC1CN2Cc1ccccc1` (stereo not shown) [SR 17004], the Ki stood at 0.00195 µM.

Turning to `CN1C2CCCC1CC(Nc1ccccc1)C2` (stereo not shown) [SR 17011], the inhibition constant (Ki) was greater than 10 µM.

Regarding `CCOC(=O)N1C2C=C(c3cccnc3)CC1CCC2` (stereo not shown) [SR 17021], the Ki is greater than 10 µM.

A word on the Ki: it is the dissociation constant of the complex between target and ligand, obtained from inhibition or displacement.

Values taken from patent publication US8697722B2 (SRI International, priority 2007, dated 2014).
